From PMC8409973, “Synthesis, antiproliferative and antitrypanosomal activities, and DNA binding of novel 6-amidino-2-arylbenzothiazoles” (Journal of Enzyme Inhibition and Medicinal Chemistry, 2021)

Assays:
[1] = system: L6 cells (a rat myoblast line); test: L6 cell proliferation (cytotoxicity, resazurin); assay type: cell-based; settings: for IC50: 144 h, rat myoblast L6, 6 days; for SI IC50 (L6/Tb): SI = [IC50 L6 cells]/[IC50 T. brucei]
[2] = system: Bloodstream form T. b. brucei (strain 221); test: Antitrypanosomal screening (resazurin); assay type: cell-based; settings: Trypanosoma brucei; for IC90: concentration that inhibited growth by 90%, mean ± SEM; for IC50: mean of triplicate ± SEM
Protocol: Resazurin (20 μl at 0.125 mg ml^−1) was added after 48 h, the plates were incubated for a further 16 h, and then read in a Spectramax plate reader, and data analysed using GraphPad Prism. Each drug was tested in triplicate.

[3] = system: MCF-7 (human breast adenocarcinoma); test: Proliferation assay (MTT, 72 h) on MCF-7; assay type: cell-based; settings: MCF7, MCF-7, 72 h
Protocol: (§1) Human cell lines SW620 (colorectal adenocarcinoma, metastatic), MCF-7 (human breast adenocarcinoma), CFPAC-1 (pancreatic adenocarcinoma), HeLa (cervical carcinoma), and HFF-1 (human foreskin fibroblasts) were obtained from the American Type Culture Collection (ATCC). Cells were cultured in a humidified atmosphere at 37 °C with 5% CO2. As a growth medium, Dulbecco’s modified Eagle medium (DMEM) was used with the addition of foetal bovine serum (10%), L-glutamine (2 mM), and antibiotics: streptomycin ([…]) and penicillin (100 U/ml).
(§2) Cells were seeded onto 96-well microtiter plates at a seeding density of 3000 cells/well for carcinoma cell lines, and 5000 cells/well for normal human fibroblasts. The next day, cells were treated with test agents at five different concentrations (0.01–100 µM) and further incubated for 72 h. […] 5-Fluorouracil (5-FU, 0.384 M fluorouracilum, Pliva 500 mg/10 ml) dissolved in physiological solution was used as a positive control. Following 72 h incubation, the MTT assay was performed and measured absorbances were transformed into a percentage of cell growth as described previously. Results were obtained from three independent experiments. IC50 values were calculated using linear regression analysis (FORECAST option taking into account the concentration range of two experimental points above and below IC50).

[4] = system: ctDNA; test: CD titration of ctDNA; assay type: binding, calf; settings: for induced CD (ICD) signal with ctDNA: CD titration, pH 7.0, λ > 300 nm; for binding mode to ctDNA: concluded from ICD, ΔTm and binding constants
Protocol: (§3) These solutions were used for measurements in an aqueous buffer (pH = 7, sodium cacodylate buffer, I = 0.05 mol dm^−3). Polynucleotides were purchased as noted: poly (dAdT)2 and calf thymus ctDNA (Sigma-Aldrich). Polynucleotides were dissolved in Na-cacodylate buffer, I = 0.05 mol dm^−3, pH = 7. The calf thymus ctDNA was additionally sonicated and filtered through a […]. Polynucleotide concentration was determined spectroscopically[50]^,[51] as the concentration of phosphates.
CD spectra were recorded on a JASCO J815 spectrophotometer in 1 cm path quartz cuvettes. CD parameters: range = 500–220 nm, data pitch = 2, standard sensitivity, scanning speed = 200 nm/min, accumulation = 3–5. Titrations were performed at 25 °C and pH = 7 (I = 0.05 mol dm^−3, sodium cacodylate buffer). CD experiments were done by adding portions of the compound stock solution into the polynucleotide solution.

[5] = system: SW620 (colorectal adenocarcinoma, metastatic); test: Proliferation assay (MTT, 72 h) on SW620; assay type: cell-based; settings: Homo sapiens, SW-620, SW620, 72 h
Protocol: as §1, §2

[6] = system: calf thymus ctDNA; test: Fluorimetric titration with ctDNA; assay type: binding; settings: for I/I0: fluorescence intensity of complex / starting intensity, ctDNA, pH 7.0; for LogKs: fluorescence titration with ctDNA, Scatchard, fixed n = 0.6, pH 7.0, sodium cacodylate I = 0.05 mol dm−3
Protocol: The calf thymus ctDNA was additionally sonicated and filtered through a […]. Polynucleotide concentration was determined spectroscopically[50]^,[51] as the concentration of phosphates. Fluorescence spectra were recorded on a Varian Cary Eclipse spectrophotometer at 25 °C using appropriate 1 cm path quartz cuvettes. […] In fluorimetric experiments, an excitation wavelength of λexc ≥300 nm was used to avoid the inner filter effect caused due to increasing absorbance of the polynucleotide. Emissions were determined in the range λem = 350–650 nm. Values for Ks were obtained by processing titration data using the Scatchard equation[52].

[7] = system: HeLa (cervical carcinoma); test: Proliferation assay (MTT, 72 h) on HeLa; assay type: cell-based; settings: Homo sapiens
Protocol: as §1, §2

[8] = system: ctDNA; test: Thermal denaturation of ctDNA; assay type: binding, calf; settings: r = [compound]/[polynucleotide] = 0.3, pH 7.0; error ±0.5 °C
Protocol: as §3
(§4) The UV/Vis spectra were recorded on a Varian Cary 100 Bio spectrophotometer using 1 cm path quartz cuvettes. Calibration experiments were performed at 25 °C and pH = 7 (I = 0.05 mol dm^−3, sodium cacodylate buffer). Absorption maxima and corresponding molar extinction coefficients (ε) of benzothiazole derivatives are given in Table S1 (Supplementary material). Thermal melting curves for DNA and their complexes with studied compounds were determined as previously described by following the absorption change at 260 nm as a function of temperature. The absorbance of the ligands was subtracted from every curve and the absorbance scale was normalised. Tm values are the midpoints of the transition curves determined from the maximum of the first derivative and checked graphically by the tangent method. The ΔTm values were calculated by subtracting Tm of the free nucleic acid from Tm of the complex. Every ΔTm value reported here was the average of at least two measurements. The error in ΔTm is ±0.5 °C.

[9] = system: poly (dAdT)2; test: Thermal denaturation of p(dAdT)2; assay type: binding; settings: r = [compound]/[polynucleotide] = 0.3, pH 7.0; error ±0.5 °C
Protocol: as §3, §4

[10] = system: HFF-1 (human foreskin fibroblasts); test: Proliferation assay (MTT, 72 h) on normal fibroblasts HFF-1; assay type: cell-based; settings: HFF-1 normal fibroblasts
Protocol: as §1, §2

[11] = system: CFPAC-1 (pancreatic adenocarcinoma); test: Proliferation assay (MTT, 72 h) on CFPAC-1; assay type: cell-based; settings: Homo sapiens, CFPAC-1, 72 h
Protocol: as §1, §2

Compound | IC50 [1] [nM] | IC90 [2] [nM] | IC50 [2] [nM] | IC50 [3] [nM] | induced CD (ICD) signal with ctDNA [4] | binding mode to ctDNA [4] | IC50 [5] [nM] | I/I0 [6] | LogKs [6] | IC50 [7] [nM] | ΔTm ctDNA [8] [°C] | ΔTm p(dAdT)2 [9] [°C] | IC50 [10] [nM] | melting point [°C] | IC50 [11] [nM] | SI IC50 (L6/Tb) [1]
N=C(N)c1ccc2nc(-c3ccc(OCc4cn(-c5ccc(Cl)cc5)nn4)cc3)sc2c1 [10b] | 1460 ± 450 | 810 ± 40 | 540 ± 130 | 870 ± 180 | small negative ICD signal | intercalation | 3050 ± 820 | 0.12 | 6.6 | 1240 ± 600 | 2.7 | 2.3 | 170 ± 130 |  |  | 
CS(=O)(=O)O.c1ccc(Cn2cc(COc3nc4ccc(C5=NCCN5)cc4s3)nn2)cc1 [11d, 6-(4,5-Dihydro-1H-imidazol-3-ium-2-yl)-2[(1-benzyl-1H-1,2,3-triazol-4-yl)methoxy]benzothiazole methanesulfonate] | < 200 | 1300 ± 20 | 1090 ± 20 | 2210 ± 1170 |  |  | 1810 ± 550 |  |  | 1400 ± 750 |  |  | 180 ± 20 | 227 to 232 | 1210 ± 740 | 
CS(=O)(=O)O.Clc1ccc(-n2cc(COc3nc4ccc(C5=NCCCN5)cc4s3)nn2)cc1 [12b, 6-(3,4,5,6-Tetrahydropyrimidin-1-ium-2-yl)-2-[(1-(4-Chlorophenyl)-1H-1,2,3-triazol-4-yl]methoxy)benzothiazole methanesulfonate] | 2320 ± 180 | 1190 ± 20 | 910 ± 80 | 3910 ± 1190 | positive induced CD spectra | minor groove binding mode | 660 ± 210 | 0.31 | 7.0 | 2810 ± 580 |  |  | 240 ± 90 | 220 to 224 | 3550 ± 810 | 
COc1ccc(-n2cc(COc3nc4ccc(C5=NCCCN5)cc4s3)nn2)cc1.CS(=O)(=O)O [12c, 6-(3,4,5,6-Tetrahydropyrimidin-1-ium-2-yl)-2-{[1-(4-methoxyphenyl)-1H-1,2,3-triazol-4-yl]methoxy}benzothiazole methanesulfonate] | 2920 ± 260 | 1180 ± 20 | 900 ± 50 | 3460 ± 450 |  |  | 5220 ± 1240 |  |  | 2640 ± 460 |  |  | 460 ± 270 | 259 to 264 | 3310 ± 600 | 3.2
CS(=O)(=O)O.c1ccc(-n2cc(-c3nc4ccc(C5=NCCN5)cc4s3)nn2)cc1 [14a, 6-(4,5-Dihydro-1H-imidazol-3-ium-2-yl)-2-(1-phenyl-1H-1,2,3-triazole-4-yl)benzothiazole methanesulfonate] | < 2000 | 530 ± 30 | 400 ± 20 | 520 ± 260 |  |  | 250 ± 160 | 0.54 | 5.6 | 670 ± 60 | 0.7 | 2.6 | 120 ± 10 |  | 450 ± 190 | 
CS(=O)(=O)O.Clc1ccc(-n2cc(-c3nc4ccc(C5=NCCN5)cc4s3)nn2)cc1 [14b, 6-(4,5-Dihydro-1H-imidazol-3-ium-2-yl)-2-[1-(4-chlorophenyl)-1H-1,2,3-triazole-4-yl]benzothiazole methanesulfonate] | < 2000 | 480 ± 20 | 320 ± 60 | 1770 ± 180 |  |  | 350 ± 130 | 0.45 | 5.0 | 480 ± 10 | 2.2 | 3.6 | 360 ± 180 | > 300 | 2420 ± 60 | 
COc1ccc(-n2cc(-c3nc4ccc(C5=NCCN5)cc4s3)nn2)cc1.CS(=O)(=O)O [14c, 6-(4,5-Dihydro-1H-imidazol-3-ium-2-yl)-2-[1-(4-methoxyphenyl)-1H-1,2,3-triazole-4-yl]benzothiazole methanesulfonate] | < 2000 | 490 ± 10 | 310 ± 20 | 540 ± 10 |  |  | 360 ± 90 |  |  | 380 ± 100 | 0 | 4.5 | 180 ± 10 | > 300 | 480 ± 30 | 
CS(=O)(=O)O.c1ccc(Cn2cc(-c3nc4ccc(C5=NCCN5)cc4s3)nn2)cc1 [14d, 6-(4,5-Dihydro-1H-imidazol-3-ium-2-yl)-2-(1-benzyl-1H-1,2,3-triazole-4-yl)benzothiazole methanesulfonate] | 6640 ± 530 | 8660 ± 200 | 3680 ± 220 | 1760 ± 1170 |  |  | 850 ± 610 |  |  | 820 ± 10 |  |  | 110 ± 10 | 236 to 240 | 8710 ± 3740 | 1.8
